# Measured values: patent publication US20050124618A1, “Methods of modulating angiogenesis and cancer cell proliferation” (priority 2003, published 2005)
# Entries after “also recorded” stand apart in the source; their conditions may differ.
# System: U251 human glioma cells spheroids
# Experiment: U251 spheroid-induced angiogenesis in the rat cornea pocket
# Format: in vivo
# Details: 20 μg HET0016 pellet
# Experimental: (iii) U251 human glioma cells spheroids: U251 human glioma cells were generously provided by Dr. Stephen Brown (Dept. of Radiation Oncology, Henry Ford Health System, Detroit, Mich.). The cells were maintained in DMEM (Invitrogen) supplemented with 10% heat-inactivated fetal bovine serum, penicillin (10 IU/ml), streptomycin (10 μg/ml) and 10% non-essential amino acids and grown at 37° C. in a humidified incubator containing 5% CO2. U251 spheroids were obtained by a modification of the method of Carlsson and Yuhas (Carlsson J and Yuhas J M, Recent Results Cancer Res 1984, 95:1-23). […] Spheroid diameter was measured using a dissection microscope equipped with a ruler. […]
# (iv) Quantitation of corneal neovascularization: Seven days after pellet implantation, the rats were deeply anesthetized as previously described with ketamine and xylazine. […]
# Neovascularization was determined by comparing total vessel length in the control and experimental eyes. Vessel length was determined by tracing each vessel from the limbus to the pellet. Total length is the sum of these values in pixels and was determined using conventional image analysis software (Sigma Scan Pro, SPSS, Chicago, Ill.)
# For these experiments, we used the human glioblastoma cancer cell line U251, known to be angiogenic (Hsu S C et al., Cancer Res 1996, 56:5684-91). […] Angiogenic responses were assessed 14 days after implantation of the spheroids.
structure (smiles),measurement,setting,value
"CCCCc1ccc(N=CNO)c(C)c1 [HET0016, N-hydroxy-N′-(4-butyl-2 methylphenyl) formamidine]",effect on corneal neovascularization induced by U251 spheroids,2 weeks,significantly inhibited; also recorded: decreases angiogenesis
same,decrease of angiogenic responses to U251 spheroids,14 days after implantation,approximately 70%
